Reference: patent publication US8420695B2, “Inhibitors of janus kinases” (Merck Sharp & Dohme Corp., priority 2008, dated 2013)

Biological target: T1, recombinant JAK2 (JAK2 JH1 domain) (Homo sapiens, UniProt O60674)
T1 construct: 50 nM JAK2 JH1 domain (Upstate); purchased Upstate
Assay: JAK2 Kinase Activity Inhibition Assay and Determination of IC50 (HTRF)
Assay type: biochemical
Conditions: 50 nM JAK2 JH1 domain, 15 μM MgATP, 80 min at room temperature
Method: JAK2 Kinase Activity Inhibition Assay and Determination of IC50
The kinase activity was measured using a modified version of the homogeneous time-resolved tyrosine kinase assay described in Park et al. Anal. Biochem. 269, 94-104 (1999).
IC50 was obtained by fitting the observed relationship between compound/inhibitor concentration and HTRF signal with a 4-parameter logistic equation.

T1 sequence (O60674 849-1124 limits assumed): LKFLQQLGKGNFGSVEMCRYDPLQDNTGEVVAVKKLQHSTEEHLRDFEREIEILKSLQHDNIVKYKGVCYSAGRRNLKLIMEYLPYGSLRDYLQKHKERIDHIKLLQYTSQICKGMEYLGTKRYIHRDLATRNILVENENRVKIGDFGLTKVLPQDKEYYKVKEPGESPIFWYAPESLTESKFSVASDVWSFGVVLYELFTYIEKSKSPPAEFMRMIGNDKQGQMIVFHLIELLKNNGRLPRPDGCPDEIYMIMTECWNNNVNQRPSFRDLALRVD

Compound | IC50
CC(C)(O)c1cc(F)c(-c2cc(C(N)=O)c(Nc3ccc(S(C)(=O)=O)cc3)s2)c(F)c1 [Example 1, 5-[2,6-difluoro-4-(1-hydroxy-1-methylethyl)phenyl]-2-{[4-(methylsulfonyl)phenyl]amino}thiophene-3-carboxamide] | 47 nM
CS(=O)(=O)c1ccc(Nc2sc(-c3ccc(Cl)cc3)cc2C(N)=O)cc1 [Example 2, 5-(4-chlorophenyl)-2-{[4-(methylsulfonyl)-phenyl]amino}thio-phene-3-carboxamide] | 220 nM
CNC(=O)c1ccc(Nc2sc(-c3c(F)cc(C(C)(C)O)cc3F)cc2C(N)=O)cc1 [Example 4, 5-[2,6-difluoro-4-(1-hydroxy-1-methylethyl)-phenyl]-2-({4-[(methylamino)-carbonyl]phenyl}-amino)thiophene-3-carboxamide] | 32 nM
CN(C)C(=O)c1ccc(Nc2sc(-c3c(F)cc(C(C)(C)O)cc3F)cc2C(N)=O)cc1 [Example 5, 5-[2,6-difluoro-4-(1-hydroxy-1-methylethyl)-phenyl]-2-({4-[(dimethylamino)carbonyl]phenyl}amino)thiophene-3-carboxamide] | 21 nM
CC(C)(O)c1cc(F)c(-c2cc(C(N)=O)c(Nc3ccncc3)s2)c(F)c1 [Example 6, 5-[2,6-difluoro-4-(1-hydroxy-1-methylethyl)-phenyl]-2-(pyridin-4-ylamino)thio-phene-3-carboxamide] | 120 nM
CC(C)(O)c1cc(F)c(-c2cc(C(N)=O)c(Nc3ccnc(CO)c3)s2)c(F)c1 [Example 7, 5-[2,6-difluoro-4-(1-hydroxy-1-methylethyl)-phenyl]-2-{[2-(hydroxymethyl)-pyridin-4-yl]amino}thio-phene-3-carboxamide] | 75 nM
Cc1noc(-c2ccc(Nc3sc(-c4c(F)cc(C(C)(C)O)cc4F)cc3C(N)=O)cc2)n1 [Example 9, 5-[2,6-difluoro-4-(1-hydroxy-1-methylethyl)-phenyl]-2-{[4-(3-methyl-1,2,4-oxadiazol-5-yl)phenyl]amino} thiophene-3-carboxamide] | 1400 nM
CC(C)(O)c1ccc(-c2cc(C(N)=O)c(Nc3cccnc3)s2)cc1 [Example 10, 5-(4-(1-Hydroxy-1-methylethyl)phenyl)-2-(3-pyridinylamino)-3-thiophenecarboxamide] | 220 nM
CC(=O)c1ccc(Nc2sc(-c3c(F)cc(C(C)(C)O)cc3F)cc2C(N)=O)cc1 [Example 11, 2-[(4-acetylphenyl)amino]-5-[2,6-difluoro-4-(1-hydroxy-1-methylethyl)phenyl]thiophene-3-carboxamide] | 110 nM
CC(C)(O)c1ccc(Nc2sc(-c3c(F)cc(C(C)(C)O)cc3F)cc2C(N)=O)cc1 [Example 12, 5-[2,6-difluoro-4-(1-hydroxy-1-methylethyl)phenyl]-2-{[4-(1-hydroxy-1-methylethyl)phenyl]amino}thiophene-3-carboxamide] | 29 nM
CC(C)(O)c1cc(F)c(-c2cc(C(N)=O)c(Nc3ccc(C(=O)N4CCOCC4)cc3)s2)c(F)c1 [Example 14, 5-[2,6-difluoro-4-(1-hydroxy-1-methylethyl)phenyl]-2-{[4-(morpholin-4-ylcarbonyl)phenyl]amino}thiophene-3-carboxamide] | 21 nM
NC(=O)c1cc(-c2ccccc2)sc1Nc1ccccc1 [Example 17, 2-Anilino-5-phenylthiophene-3-carboxamide] | 1000 nM
NC(=O)c1cc(-c2ccccc2)sc1Nc1cccnc1 [Example 18, 5-Phenyl-2-(pyridin-3-ylamino)-thiophene-3-carboxamide] | 320 nM
NC(=O)c1cc(-c2ccccc2)sc1Nc1cncnc1 [Example 19, 5-Phenyl-2-(pyrimidin-5-ylamino)-thiophene-3-carboxamide] | 2600 nM
NC(=O)c1cc(-c2ccccc2)sc1Nc1ccncc1 [Example 20, 5-Phenyl-2-(pyridin-4-ylamino)-thiophene-3-carboxamide] | 180 nM
CC(C)(O)c1cc(F)c(-c2cc(C(N)=O)c(Nc3ccccc3)s2)c(F)c1 [Example 21, 2-anilino-5-[2,6-difluoro-4-(1-hydroxy-1-methylethyl)phenyl]thiophene-3-carboxamide] | 490 nM
CC(C)(O)c1cc(F)c(-c2cc(C(N)=O)c(Nc3ccc(CO)cc3)s2)c(F)c1 [Example 22, 5-[2,6-difluoro-4-(1-hydroxy-1-methylethyl)-phenyl]-2-{[4-(hydroxymethyl)-phenyl]amino}-thiophene-3-carboxamide] | 170 nM
CC(C)(O)c1cc(F)c(-c2cc(C(N)=O)c(Nc3ccc(CN4CCOCC4)cc3)s2)c(F)c1 [Example 23, 5-[2,6-difluoro-4-(1-hydroxy-1-methylethyl)-phenyl]-2-{[4-(morpholin-4-ylmethyl)-phenyl]amino}-thiophene-3-carboxamide] | 42 nM
CC(C)(O)c1cc(F)c(-c2cc(C(N)=O)c(Nc3ccc(C=O)cc3)s2)c(F)c1 [Example 24, 5-[2,6-difluoro-4-(1-hydroxy-1-methylethyl)phenyl]-2-[(4-formylphenyl)amino]thiophene-3-carboxamide] | 410 nM
CC(C)(O)c1cc(F)c(-c2cc(C(N)=O)c(Nc3ccc(CN4CCS(=O)(=O)CC4)cc3)s2)c(F)c1 [Example 25, 5-[2,6-difluoro-4-(1-hydroxy-1-methylethyl)phenyl]-2-({4-[(1,1-dioxidothiomorpholin-4-yl)methyl]phenyl}amino)thiophene-3-carboxamide] | 26 nM
CN(C)Cc1ccc(Nc2sc(-c3c(F)cc(C(C)(C)O)cc3F)cc2C(N)=O)cc1 [Example 26, 5-[2,6-difluoro-4-(1-hydroxy-1-methylethyl)-phenyl]-2-({4-[(dimethylamino)methyl]phenyl}-amino)-thiophene-3-carboxamide] | 22 nM
CC(C)(O)c1cc(F)c(-c2cc(C(N)=O)c(Nc3ccc(S(=O)(=O)N4CCOCC4)cc3)s2)c(F)c1 [Example 28, 5-[2,6-difluoro-4-(1-hydroxy-1-methylethyl)phenyl]-2-{[4-(morpholin-4-ylsulfonyl)phenyl]amino}thiophene-3-carboxamide] | 56 nM
CN(C)S(=O)(=O)c1ccc(Nc2sc(-c3c(F)cc(C(C)(C)O)cc3F)cc2C(N)=O)cc1 [Example 29, 5-[2,6-difluoro-4-(1-hydroxy-1-methylethyl)-phenyl]-2-({4-[(dimethylamino)sulfonyl]phenyl}-amino)-thiophene-3-carboxamide] | 44 nM
CC(C)(O)c1cc(F)c(-c2cc(C(N)=O)c(Nc3ccc(NS(C)(=O)=O)cc3)s2)c(F)c1 [Example 31, 5-[2,6-difluoro-4-(1-hydroxy-1-methylethyl)phenyl]-2-({4-[(methylsulfonyl)amino]phenyl}amino)thiophene-3-carboxamide] | 56 nM
